The target in one test is EGFR kinase (Homo sapiens, UniProt P00533). As to the kind of experiment: Enzymatic experiment on EGFR (HTRF kinEASE-TK). It counts as biochemical. Conditions: ATP 1.65 μM; read-out: Kinase IC50 (nM) in vitro EGFR. On the procedure:
(§1) Enzymatic Experiment on EGFR/ErbB2
(§2) Firstly, preparing 1× reaction buffer required for the kinase, 5× Enzymatic buffer (HEPES 20 mM pH7.0, NaN3 0.1%, BSA 0.05%, sodium orthovanadate 0.5 mM) in the HTRF kinEASE-TK kit was diluted to 1 time with deionized water, 50 nM Supplement Enzymatic buffer (SEB reagent), 1 mM MnCl2, 5 mM MgCl2 and 1 mM DTT were added. Secondly, preparing 5× compound, 10 mM test compound stock solution was diluted in multiple steps with DMSO in a 96-well compound plate to prepare 100× compound as initial concentration, which was then used as the first concentration to perform a 3-fold gradient dilution with DMSO to obtain 10 concentrations. Afterwards, 1 μl gradient dilution was added to 19 μl 1× reaction buffer to prepare 5× compound for use. Then 2 μl 5× compound was transferred from the 96 well plate into a 384-well plate. To the compound-free control wells was added with 2 μl the following liquid: 19 μl 1× reaction buffer with addition of 1 μl DMSO. To the blank control wells was added 2 μl 250 mM EDTA. The third step was enzymatic reaction, the kinase, substrate (TK Substrate-biotin) and ATP were formulated into 2.5× enzyme/substrate mixture and 2.5×ATP solution using 1× reaction buffer respectively. The final concentration of ErbB2 kinase was 0.06 ng/μl, the final concentration of ATP was 4 μM; the final concentration of EGFR kinase was 0.06 units/μl, the final concentration of ATP was 1.65 μM; 4 μl 2.5× enzyme/substrate mixture was added to a 384-well plate, which was incubated at room temperature for 5 minutes; 4 μl 2.5×ATP solution was added to each well and the mixture was allowed to react for 30 minutes at room temperature. The fourth step was termination of the reaction, HTRF Detection buffer was used to prepare a mixture of 2×TK Antibody-Eu(K) and Sa-XL665, the amount of TK Antibody-Eu(K) was 5 μl per well. After the enzymatic reaction was performed for 30 minutes, 10 μl of the above liquid was added to the 384-well plate and the mixture was allowed to react at room temperature for 1 hour. The data was measured on EnVision™, the laser of 337 nm wavelength was selected as the excitation light, RFU665 nM and RFU620 nM were measured, and […]/RFU620 nM×10000 was used as the final data for analysis.

The next test concerns the target ErbB2 kinase (Homo sapiens, UniProt P04626). As to the kind of experiment: Enzymatic experiment on ErbB2 (HTRF kinEASE-TK). It counts as biochemical. As to conditions: ATP 4 μM; read-out: Kinase IC50 (nM) in vitro ErbB2. As for the experimental part: as §1, §2
On the technique in general: In TR-FRET formats the signal depends on donor and acceptor labels being close together.

For the next test, the system named is N87. As to the kind of experiment: Proliferation inhibition assay in vitro, N87 (CellTiter-Glo). It counts as cell-based. Conditions: Homo sapiens; 72 hours; read-out: IC50(nM) cell N87. As for the experimental part: (§3) Proliferation Inhibition Assay In Vitro of Cell Lines
(§4) 1. Cell culture and inoculation: on the first day of the experiment, normal cultured cells were taken in the exponential growth phase, the cells were dispersed by digesting, then the cell density was adjusted to 8.8×10^4 cells/mL for BT-474 and 6.6×10^4 cells/mL for N87, 90 μl of which were inoculated to each well in a 96-well cell culture plate; after inoculation, the microplate was placed at condition of 37° C., 5% CO2 overnight. 2. Dosing to cells: on the second day of the experiment, the microplate was taken out from incubator, […], of 10× compound was separately added to each well of the microplate, 2 duplicated wells were set for each concentration, 9 dosing concentrations were set for each compound. According to different cell lines, the initial concentration of each compound was different. Upon completion of addition, the microplate was placed at condition of 37° C., 5% CO2 for 72 hours. 3. Data acquisition: the microplate was taken out from the incubator and allowed to stand at room temperature to equilibrate for 30 minutes. 100 μl CellTiter-Glo® Luminescent Cell Viability Assay reaction solution which had been equilibrated at room temperature was added to each well and the microplate was shaken at 1300 rpm for 2 minutes at room temperature. The microplate was centrifuged at 2000 rpm for 1 minute in a HERAEUS Multifuge X1R and then allowed to equilibrate at room temperature for 10 minutes. The […] signal was measured on EnVision™.
For orientation: In ATP-based viability assays light output follows the ATP content of the culture.

The next test deals with BT-474. As to the kind of experiment: Proliferation inhibition assay in vitro, BT-474 (CellTiter-Glo). Conditions: Homo sapiens, 72 hours, read-out: IC50(nM) cell BT-474. Format: cell-based. On the procedure:
as §3, §4

Chain of EGFR kinase (P00533 25-1210): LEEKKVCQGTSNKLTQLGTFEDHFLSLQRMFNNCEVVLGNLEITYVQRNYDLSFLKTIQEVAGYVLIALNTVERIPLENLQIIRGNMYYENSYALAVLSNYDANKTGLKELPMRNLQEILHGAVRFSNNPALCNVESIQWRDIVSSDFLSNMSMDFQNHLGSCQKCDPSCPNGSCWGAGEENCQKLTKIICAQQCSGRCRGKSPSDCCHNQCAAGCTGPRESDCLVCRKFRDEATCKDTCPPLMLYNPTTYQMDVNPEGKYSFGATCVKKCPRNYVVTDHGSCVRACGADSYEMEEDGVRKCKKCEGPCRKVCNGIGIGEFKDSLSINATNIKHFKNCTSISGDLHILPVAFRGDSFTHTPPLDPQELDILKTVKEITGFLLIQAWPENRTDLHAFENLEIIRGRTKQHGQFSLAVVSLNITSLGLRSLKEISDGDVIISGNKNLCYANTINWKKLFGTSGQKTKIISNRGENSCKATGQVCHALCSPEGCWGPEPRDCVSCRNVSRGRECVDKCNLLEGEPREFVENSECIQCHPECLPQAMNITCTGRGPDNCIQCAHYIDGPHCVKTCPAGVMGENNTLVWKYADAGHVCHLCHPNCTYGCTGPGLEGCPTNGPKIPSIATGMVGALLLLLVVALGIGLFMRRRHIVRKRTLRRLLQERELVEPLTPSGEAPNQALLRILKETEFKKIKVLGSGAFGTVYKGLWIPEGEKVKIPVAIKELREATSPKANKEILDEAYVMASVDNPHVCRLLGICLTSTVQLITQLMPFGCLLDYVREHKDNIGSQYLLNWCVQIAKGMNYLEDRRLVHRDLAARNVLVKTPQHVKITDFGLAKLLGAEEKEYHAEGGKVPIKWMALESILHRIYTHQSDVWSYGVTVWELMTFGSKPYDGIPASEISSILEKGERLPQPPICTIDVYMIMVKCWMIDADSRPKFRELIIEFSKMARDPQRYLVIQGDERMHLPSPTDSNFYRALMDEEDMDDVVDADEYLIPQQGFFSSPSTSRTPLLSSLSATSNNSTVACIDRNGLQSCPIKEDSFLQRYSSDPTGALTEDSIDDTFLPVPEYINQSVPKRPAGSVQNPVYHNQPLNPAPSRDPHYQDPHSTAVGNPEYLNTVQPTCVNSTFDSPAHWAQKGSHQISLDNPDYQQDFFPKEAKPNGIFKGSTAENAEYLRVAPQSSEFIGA
Chain of ErbB2 kinase (P04626 23-1255): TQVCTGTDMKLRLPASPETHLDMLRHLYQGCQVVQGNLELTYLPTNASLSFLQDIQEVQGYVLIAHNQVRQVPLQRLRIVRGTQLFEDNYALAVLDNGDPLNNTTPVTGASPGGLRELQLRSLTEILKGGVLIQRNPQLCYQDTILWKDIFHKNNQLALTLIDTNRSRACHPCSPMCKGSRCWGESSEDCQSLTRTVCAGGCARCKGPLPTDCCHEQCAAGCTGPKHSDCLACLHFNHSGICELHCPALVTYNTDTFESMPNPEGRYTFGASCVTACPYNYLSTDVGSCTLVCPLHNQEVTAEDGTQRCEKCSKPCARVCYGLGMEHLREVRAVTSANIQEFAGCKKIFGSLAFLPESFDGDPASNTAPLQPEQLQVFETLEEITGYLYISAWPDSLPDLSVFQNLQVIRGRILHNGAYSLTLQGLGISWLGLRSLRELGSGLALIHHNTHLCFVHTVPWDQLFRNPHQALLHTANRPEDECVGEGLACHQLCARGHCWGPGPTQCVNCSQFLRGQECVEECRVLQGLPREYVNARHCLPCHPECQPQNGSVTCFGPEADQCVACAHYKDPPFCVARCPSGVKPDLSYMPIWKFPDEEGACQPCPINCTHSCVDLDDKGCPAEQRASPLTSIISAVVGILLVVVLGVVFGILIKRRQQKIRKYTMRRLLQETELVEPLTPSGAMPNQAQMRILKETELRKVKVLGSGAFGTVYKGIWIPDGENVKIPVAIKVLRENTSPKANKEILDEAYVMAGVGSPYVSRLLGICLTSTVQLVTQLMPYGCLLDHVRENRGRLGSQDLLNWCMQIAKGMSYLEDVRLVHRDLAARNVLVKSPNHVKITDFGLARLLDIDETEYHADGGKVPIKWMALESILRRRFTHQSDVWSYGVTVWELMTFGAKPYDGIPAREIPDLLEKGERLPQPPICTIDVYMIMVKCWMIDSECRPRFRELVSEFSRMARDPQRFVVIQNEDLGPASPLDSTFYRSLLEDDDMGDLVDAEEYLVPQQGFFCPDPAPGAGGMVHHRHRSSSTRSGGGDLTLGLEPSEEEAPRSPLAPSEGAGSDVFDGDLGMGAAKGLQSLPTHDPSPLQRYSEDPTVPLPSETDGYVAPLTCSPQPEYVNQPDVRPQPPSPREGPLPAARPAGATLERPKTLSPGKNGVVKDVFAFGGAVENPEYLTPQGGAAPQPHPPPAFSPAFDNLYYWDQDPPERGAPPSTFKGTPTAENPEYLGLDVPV

By IC50 is commonly meant the concentration that gives 50% inhibition. With `Cc1cc(Nc2ncnc3ccc(/C=C/C(=O)NOCCO)cc23)ccc1Oc1cc2nncn2cn1`, the IC50 on EGFR kinase came out at 82.7 nM; at ErbB2 kinase, 22.1 nM.
Taken in the same sequence, the figures for `Cc1cc(Nc2ncnc3ccc(NC4=NC(C)(C)CO4)cc23)ccc1Oc1cc2ncnn2cn1` [Embodiment 2, N^4-(4-([1,2,4]triazolo[1,5-c]pyrimidin-7-yloxy)-3-methylphenyl)-N^6-(4,4-dimethyl-4,5-dihydrooxazol-2-yl)quinazoline-4,6-diamine] were 230 nM and 16.7 nM.
Taken in the same sequence, the figures for `Cc1cc(Nc2ncnc3ccc(NC(=O)N4CCOCC4)cc23)ccc1Oc1cc2nncn2cn1` [Embodiment 6] were 1890 nM and 24.8 nM.
Regarding `Cc1cc(Nc2ncnc3ccc(NC(=S)NC(C)(C)CNC(=O)OC(C)(C)C)cc23)ccc1Oc1cc2nncn2cn1` [Embodiment 11, tert-butyl (2-(3-(4-((4-([1,2,4]triazolo[4,3-c]pyrimidin-7-yloxy)-3-methylphenyl)amino)quinazolin-6-yl)thioureido)-2-methylpropyl)carbamate], the IC50 at EGFR kinase is greater than 3330 nM; at ErbB2 kinase, 58.1 nM.
The like results for `Cc1cc(Nc2ncnc3ccc(NC(=S)NCC(C)(C)N)cc23)ccc1Oc1cc2nncn2cn1` [Embodiment 18, 1-(4-((4-([1,2,4]triazolo[4,3-c]pyrimidin-7-yloxy)-3-methylphenyl)amino)quinazolin-6-yl)-3-(2-amino-2-methylpropyl)thiourea] were, in that order, 79.5 nM and 13.2 nM.
On to `Cc1cc(Nc2ncnc3ccc(NC(=O)OC[C@@H]4COCCN4)cc23)ccc1Oc1cc2nncn2cn1` [Embodiment 20, morpholin-3-ylmethyl (S)-(4-((4-([1,2,4]triazolo[4,3-c]pyrimidin-7-yloxy)-3-methylphenyl)amino)quinazolin-6-yl)carbamate], for which the half-inhibitory concentration (IC50) was 40.6 nM at EGFR kinase and 4.3 nM on ErbB2 kinase.
Take `Cc1cc(Nc2ncnc3ccc(NC4=NCC5(CCNCC5)O4)cc23)ccc1Oc1cc2nncn2cn1` [Embodiment 28, N^4-(4-([1,2,4]triazolo[4,3-c]pyrimidin-7-yloxy)-3-methylphenyl)-N^6-(1-oxa-3,8-diazaspiro[4.5]dec-2-en-2-yl)quinazoline-4,6-diamine]: the IC50 on EGFR kinase is 17.7 nM; at ErbB2 kinase it was 4.79 nM.
As to `C=CC(=O)N1CC2(COC(Nc3ccc4ncnc(Nc5ccc(Oc6cc7nncn7cn6)c(C)c5)c4c3)=N2)C1` [Embodiment 29, 1-(6-((4-((4-([1,2,4]triazolo[4,3-c]pyrimidin-7-yloxy)-3-methylphenyl)amino)quinazolin-6-yl)amino)-7-oxa-2,5-diazaspiro[3.4]oct-5-en-2-yl)prop-2-en-1-one], the 50% inhibitory concentration (IC50) on EGFR kinase is 41.8 nM; at ErbB2 kinase, 3.6 nM.
Consider `Cc1cc(Nc2ncnc3ccc(NC(=O)CC#N)cc23)ccc1Oc1cc2nncn2cn1` [Embodiment 37, N-(4-((4-([1,2,4]triazolo[4,3-c]pyrimidin-7-yloxy)-3-methylphenyl)amino)quinazoline-6-yl)-2-cyanoacetamide], for which the IC50 at EGFR kinase was 45.2 nM; on ErbB2 kinase, 4.8 nM.
As for `Cc1cc(Nc2ncnc3ccc(NC(=O)c4cnoc4C)cc23)ccc1Oc1cc2nncn2cn1` [Embodiment 39, N-(4-((4-([1,2,4]triazolo[4,3-c]pyrimidin-7-yloxy)-3-methylphenyl)amino)quinazoline-6-yl)-5-methylisoxazole-4-carboxamide], the IC50 was 20 nM at EGFR kinase and 1.8 nM at ErbB2 kinase.
Regarding `COc1cc2ncnc(Nc3ccc(Oc4cc5nncn5cn4)c(C)c3)c2cc1OC1CCNCC1` [Embodiment 40, N-(4-([1,2,4]triazolo[4,3-c]pyrimidin-7-yloxy)-3-methylphenyl)-7-methoxy-6-(piperidin-4-yloxy)quinazolin-4-amine], the values for the concentration for half-maximal inhibition (IC50) on EGFR kinase and on ErbB2 kinase were 12.7 nM and 6.9 nM, respectively.
Regarding `Cc1cc(Nc2ncnc3ccc(NC4=NCC(F)(F)CO4)cc23)ccc1Oc1cc2nncn2cn1` [Embodiment 43, N^4-(4-([1,2,4]triazolo[4,3-c]pyrimidin-7-yloxy)-3-methylphenyl)-N^6-(5,5-difluoro-5,6-dihydro-4H-1,3-oxazin-2-yl)quinazoline-4,6-diamine], the IC50 on EGFR kinase came out at 69.7 nM; on ErbB2 kinase, 9.26 nM.
With `Cc1cc(Nc2ncnc3ccc(NC(=O)Nc4cc(C)n(C(=O)OC(C)(C)C)n4)cc23)ccc1Oc1cc2nncn2cn1` [Embodiment 69, tert-butyl 3-(3-(4-((4-([1,2,4]triazolo[4,3-c]pyrimidin-7-yloxy)-3-methylphenyl)amino)quinazolin-6-yl)ureido)-5-methyl-1H-pyrazol-1-carbamate], the values for the IC50 on EGFR kinase and at ErbB2 kinase were 92.7 nM and 7 nM, respectively.
As for `Cc1cc(Nc2ncnc3ccc(NC(=O)/C(C#N)=C/C4CC4)cc23)ccc1Oc1cc2nncn2cn1` [Embodiment 85, (E)-N-(4-((4-([1,2,4]triazolo[4,3-c]pyrimidin-7-yloxy)-3-methylphenyl)amino)quinazolin-6-yl)-2-cyano-3-cyclopropylacrylamide], the IC50 on EGFR kinase is 14.9 nM; on ErbB2 kinase, 2.2 nM.
As to `CC1(C)COC(Nc2ccc3ncnc(Nc4ccc(Oc5cc6nncn6cn5)c(CO)c4)c3c2)=N1` [Embodiment 89, N^4-(3-hydroxymethyl-4-([1,2,4]triazolo[4,3-c]pyrimidin-7-yloxy)phenyl)-N^6-(4,4-dimethyl-4,5-dihydrooxazol-2-yl)quinazolin-4,6-diamine], the IC50 at EGFR kinase amounted to 167 nM; on ErbB2 kinase, 8.5 nM.
For `Cc1cc(Nc2ncnc3ccc(NC4=NC(C)(C)CO4)cc23)ccc1Oc1ncn2cnnc2c1O` [Embodiment 102, 7-(4-((6-((4,4-dimethyl-4,5-dihydrooxazol-2-yl)amino)quinazolin-4-yl)amino)-2-methylphenoxy)-[1,2,4]triazolo[4,3-c]pyrimidin-8-ol], the IC50 on EGFR kinase came to 11.4 nM; on ErbB2 kinase, 4.5 nM.
Turning to `Cc1cc(Nc2ncnc3ccc(NC(=S)NCC(C)(C)O)cc23)ccc1Oc1cc2nncn2cn1` [Embodiment 113, 1-(4-((4-([1,2,4]triazolo[4,3-c]pyrimidin-7-yloxy)-3-methylphenyl)amino)quinazolin-6-yl)-3-(2-hydroxy-2-methylpropyl)thiourea], the IC50 turned out to be 170 nM at EGFR kinase and 9.4 nM at ErbB2 kinase.
With `C=CC(=O)N1CCC2(CC1)CN=C(Nc1ccc3ncnc(Nc4ccc(Oc5cc6nncn6cn5)c(C)c4)c3c1)O2` [Embodiment 114, 1-(2-((4-((4-([1,2,4]triazolo[4,3-c]pyrimidin-7-yloxy)-3-methylphenyl)amino)quinazolin-6-yl)amino)-1-oxa-3,8-diazaspiro[4,5]dec-2-en-8-yl)-2-acrylamide], the figures for the IC50 on EGFR kinase and at ErbB2 kinase were 623 nM and 24.5 nM, respectively.
Consider `Cc1cc(Nc2ncnc3ccc(NC4=NC(C)(C)CO4)cc23)ccc1Oc1ccn2ncnc2c1` [drawing 219, reference compound], for which the IC50 on EGFR kinase was 57.6 nM; in the test on N87, 13.2 nM; with BT-474 it was 14.2 nM.
Turning to `Cc1cc(Nc2ncnc3ccc(NC4=NC(C)(C)CO4)cc23)ccc1Oc1ccn2nccc2n1` [reference compound], the IC50 on EGFR kinase came to 82.7 nM; at ErbB2 kinase, 49.4 nM.
Take `Cc1cc(Nc2ncnc3ccc(NC4=NC(C)(C)CO4)cc23)ccc1Oc1ccc2nncn2n1` [reference compound]: the IC50 at EGFR kinase was 557 nM; at ErbB2 kinase it was 935 nM.

Source of the values: patent US10828305B2 (SHANGHAI PHARMACEUTICALS HOLDING CO., LTD., priority 2016, dated 2020).
